Where a name gives a salt, the structure may show the parent alone.
What was measured:
[1] = biological target: T1, human prion protein 23–231 (PrP, unlabeled wild type) (Homo sapiens, UniProt P04156); test: biochemical; assay type: binding
T1 construct: gene PRNP

[2] = biological target: T2, human prion protein 91–231 (Homo sapiens, UniProt P04156); test: biochemical; assay type: binding
T2 construct: gene PRNP

SMILES	IC50 [1]	Kd [2]
CC[N+](C)(CC)CCC[n+]1c(-c2ccccc2)c2cc(N)ccc2c2ccc(N)cc21 [Propidium iodide]	> 100 µM	–
NC(CO)C(=O)NNCc1ccc(O)c(O)c1O (stereo not shown) [Benserazide HCl]	> 100 µM	–
CC(C)/N=c1\cc2n(-c3ccc(Cl)cc3)c3ccccc3nc-2cc1Nc1ccc(Cl)cc1 [Clofazimine]	> 100 µM	–
O=C1c2c(O)cccc2Cc2cccc(O)c21 [Anthralin]	> 100 µM	–
C[C@@H]1[C@H](O)[C@@H](C)/C=C/C=C/C=C/C=C/C=C/C=C/C=C/[C@H](O[C@@H]2O[C@H](C)[C@@H](O)[C@H](N)[C@@H]2O)C[C@@H]2O[C@](O)(C[C@@H](O)C[C@@H](O)[C@H](O)CC[C@@H](O)C[C@@H](O)CC(=O)O[C@H]1C)C[C@H](O)[C@H]2C(=O)O [Amphotericin B]	88.8 µM	–
COc1cc(-c2ccc(N=Nc3ccc4c(S(=O)(=O)O)cc(S(=O)(=O)O)c(N)c4c3O)c(OC)c2)ccc1N=Nc1ccc2c(S(=O)(=O)O)cc(S(=O)(=O)O)c(N)c2c1O [Chicago Sky Blue 6B]	–	1.43 ± 0.24 µM
COc1cc(C(=O)NS(=O)(=O)c2ccccc2C)ccc1Cc1cn(C)c2ccc(NC(=O)OC3CCCC3)cc12 [Zafirlukast]	85.7 µM	–

Source: article PMC4505445 (The Journal of Biological Chemistry, 2015)
